# Laboratory results taken from publication PMC9365994, “Small molecules to regulate the GH/IGF1 axis by inhibiting the growth hormone receptor synthesis” (Frontiers in Endocrinology, 2022).
# Entries after “also recorded” stand apart in the source; their conditions may differ.
# How the values were obtained:
# [1] = tested on: GH-induced GHR-Jak2-Stat5 signaling in IM9 lymphoblasts; assay: Flow cytometric (FACS) pSTAT5 test, GH-induced, IM9 cells in whole blood; conditions: for GH-induced Stat5 phosphorylation (in words): Fig. S8A, Conc of drugs: 1 mM, incubation time 30 min; for inhibition in the FACS assay: drugs 50 µM for 15 MIN
# Protocol: First round: The PerFix EXPOSE (Beckman Coulter), was used to fix and permeabilize cells according to the optimized procedure described in Malergue et al., 2015 ([36]). Samples were analyzed in FC500 MPL. Data were analyzed with Kaluza software (Beckman Coulter). Second round: the PerFix EXPOSE was used according to the IFU and samples were analyzed in a Navios Cytometer. The first screening used pure IM-9 cells, whereas in the second round they were spiked in 100 µL whole blood (EDTA tubes). 15 min after the inhibitory compounds, the activators were added for 20-30 min.
# In short: A mixture of blood and
# IM9 human lymphoblast was incubated with the drugs (50 µM) for 15 MIN; GH and GM-CSF
# were added 7 min before the cells were fixed with formaldehyde. Blood cells are sensitive to
# GM-CSF, and not to GH; IM9 cells are sensitive to GH. A mixture of three antibodies in three
# colors; CD14-FITC, CD34-PE and p-Stat5-Alexa 647 was used to analyze the p-Stat5 levels
# of monocytes and IM9 cells.
# Fig. S8A. FACS plots of compounds that inhibit GH-induced GHR-Jak2-Stat5 signaling in IM9 lymphoblasts.
# The end point of the signaling cascade is measured by assessing the phosphorylation status of STAT5.
# Stat5. Conc of drugs: 1 mM; incubation time 30 min
# Fig. S8B. FACS plots of compounds that inhibit GM-CSF-Jak2-Stat5 signaling in blood monocytes. The end
# point of the signaling cascade is measured by assessing the phosphorylation status of STAT5.
# fos-GHRct = molecular target: T1, fos-GHRct (Oryctolagus cuniculus, UniProt P19941); assay: In vitro translation of fos-GHRct in HeLa cell cell-free system; type: biochemical; conditions: Figure 7B
# T1 sequence (P19941 288-638): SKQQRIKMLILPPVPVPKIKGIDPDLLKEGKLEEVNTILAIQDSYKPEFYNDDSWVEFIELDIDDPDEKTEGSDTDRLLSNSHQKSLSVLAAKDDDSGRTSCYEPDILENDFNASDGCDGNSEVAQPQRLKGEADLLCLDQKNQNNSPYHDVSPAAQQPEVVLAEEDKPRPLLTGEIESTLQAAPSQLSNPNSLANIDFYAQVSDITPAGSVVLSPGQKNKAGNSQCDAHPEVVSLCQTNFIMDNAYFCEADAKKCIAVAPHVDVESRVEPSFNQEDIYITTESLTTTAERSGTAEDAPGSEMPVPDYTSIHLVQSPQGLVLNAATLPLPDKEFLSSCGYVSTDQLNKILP
# Text: pcDNA3 vector DNA expressing Fos-zippered GHR cytosolic tails as described in ([32]) was used in a cell-free translation system, based on HeLa cell extract (Promega). Empty vector (pcDNA) was used as control. The blots were detected with an anti-GHR antibody raised in rabbits against GHR cytosolic tails.
# To decide between these possibilities, we performed in vitro translation experiments.
# This experiment represents the results of 6 independent repeats. […] In the right panel the 4 proline residues in box-1 were replaced by alanine residues. Empty vector (pcDNA) was used as control. The blots were detected with anti-GHR(B).
# IGF1 = assay: Serum IGF1 levels in xenografted mice; type: in vivo
# Protocol: (§1) BM001, BM002, and BM003 were used in mice xenografted with MM231 breast cancer cells that are GH-responsive both for growth and drug resistance ([42]–[45]). The cells were orthotopically grafted into the inguinal mammary gland, and drug treatments started when tumors reached a volume of >50 mm^3. We used a treatment regimen of 3 injections per week (1 and 5 mg/kg) during 3 weeks (9 mice/group) ( Figure 6 ). Animals were killed when tumor volume exceeded 150 mm^3 or mice presented lung metastasis upon bioluminescence imaging measurements. […] Drug withdrawal effects were not studied until now. […] We observed no adverse side effects neither on appetite and behavior ([46]). […] We next assessed if the identified drugs indeed target the GH/IGF1 pathway and consequently, if they result in a decrease in liver weight and IGF1 levels, as observed in GHR knockout mice and Laron patients ([47]).
# [2] = Liver weight, body weight and side effects in xenografted mice; type: in vivo
# Protocol: as §1
# [3] = Glucose and insulin levels in a dog experiment; type: in vivo; conditions: data not shown
# [4] = tested on: MDA-MM-231 (MM231) triple-negative human breast cancer line; assay: Cell proliferation assay (CyQuant), MDA-MM-231; type: cell-based
# Text: (§2) Based on these 2 compounds, Specs selected a new set of 109 structural analogues ( Supplementary Data 3 ). Twenty-one compounds tested positive in the primary screen protocol. […] ( Figures S12, S13 ). The 14 active drugs are depicted in Figure 4 . In the final test, the 5 best compounds (BM001-BM005) were screened for their […] effect on cancer cells. We used the triple-negative human breast cancer line, MDA-MM-231 (MM231) and the human colon cancer line Colo-205, and quantified DNA in vital cells ( Figure 5B ). Dose-response curves were made after 24, 48 & 72 h. The 5 drugs inhibited both cell lines relatively equal to the dose-response curves monitoring pGHR tails, pJak2, and pSTAT5 ( Figure S13 and Figure S14 ) with IC50 values varying from 30-200 nM ( Figure 5 ). […]
# (§3) fos-GHRct phosphorylation (Fig. S12), a remarkable hit rate of […]. Next, we determined the dose-response effect (IC50) of these 21 new compounds on pY-levels of fos-GHRct. The compounds were divided in four categories: no dose-response effect (6), effect less than […]
# (§4) plateaued at 200 units of relative fluorescence intensity. […]
# (§5) protocol. […]
# (§6) Next, we assessed the effect of the best 5 lead compounds (BM001-BM005) for the inhibition of cell proliferation/induction or cell death. […] With a standard green filter set the fluorescence from the nuclei is quantified in a multi-well plate spectrophotometer. […]
# [5] = tested on: Colo-205 human colon cancer line; assay: Cell proliferation assay (CyQuant), Colo-205; type: cell-based
# Text: as §2, §3, §4, §5, §6
smiles,measurement,setting,value
Cc1nc(N)nc(N)c1C#CC1(c2ccc(Cl)cc2)CC1 [BM004],time to decrease of STAT5 phosphorylation,[1],≤ 30 min
same,GH-induced Stat5 phosphorylation (in words),[1],decreased; also recorded: inhibit
same,inhibition in the FACS assay,[1],> 30%
Cc1nc(N)nc(N)c1/C=C/C1(c2ccc(C(F)(F)F)cc2)CC1 [BM001],concentration inhibiting the synthesis of fos-GHRct,fos-GHRct,0.1 to 1 µM
same,reduction of serum IGF1 levels,"IGF1; 3 injections per week, 3 weeks",73%
same,plasma IGF1 levels (in words),IGF1; Figure 6D,dose-dependent reduction
same,reduction of IGF1 (fold),IGF1; measured at the end of the experiment,four-fold
same,Liver weight,[2]; 1 mg/kg,1041 mg
same,Liver weight,[2]; 5 mg/kg,1038 mg
same,reduction of liver weight,"[2]; 3 injections per week, 3 weeks",16%
same,total body weights,[2]; 3 weeks treatment,remained the same
same,liver weight (in words),[2]; Figure 6E,dose-dependent reduction
same,glucose levels,[3],did neither affect
same,insulin levels,[3],did neither affect
CCOc1cccc2nc(N)nc(N)c12 [BM012],time to decrease of STAT5 phosphorylation,[1],≤ 30 min
same,GH-induced Stat5 phosphorylation (in words),[1],decreased; also recorded: inhibit
same,inhibition in the FACS assay,[1],> 30%
"N#CC[C@H](C1CCCC1)n1cc(-c2ncnc3[nH]ccc23)cn1 [Ruxolitinib, reference compound]",effect on cell proliferation (in words),[4],no effect
same,effect on cell proliferation (in words),[5],no effect
